Data: patent publication US20240252506A1 (Hoffmann-La Roche Inc., priority 2021, published 2024)
Converted amounts (≈) assume the structure as drawn. Where a name gives a salt, the structure may show the parent alone.

The compounds below were run on Escherichia coli ATCC 25922 (assay: Minimal Inhibitory Concentration (MIC) determination, broth microdilution (CLSI M07-A10)). Details: Escherichia coli, ATCC25922, strain Escherichia coli ATCC 25922, 18-24 hours at 35±2° C., lowest concentration for complete growth inhibition (no visible growth), read-out: Escherichia coli growth inhibition MIC.
Type: cell-based
Outline: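 MIC read visually as the lowest concentration with complete growth inhibition after 18-24 h at 35±2° C, ambient air. Method follows CLSI M07-A10 broth microdilution, two-fold compound series, inoculum standardized to 0.5 McFarland then diluted 1:200.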

MIC [µg/mL]	Structure (SMILES)
0.25	O=C(O)C(F)(F)F.O=C1COc2ncc(N3CC4(CCN(CC5Cc6c(c(F)c7[nH]c(C8CNCCO8)nc7c6F)C5)CC4)OC3=O)nc2N1 (stereo not shown) [Example 16, 6-[8-[(4,8-difluoro-2-morpholin-2-yl-3,5,6,7-tetrahydrocyclopenta[f]benzimidazol-6-yl)methyl]-2-oxo-1-oxa-3,8-diazaspiro[4.5]decan-3-yl]-4H-pyrazino[2,3-b][1,4]oxazin-3-one; 2,2,2-trifluoroacetic acid]
0.5 (≈ 0.839 µM)	O=C1COc2ncc(N3CC4(CCN(CC5Cc6c(c(F)c7nn(CCNC8CC8)nc7c6F)C5)CC4)OC3=O)nc2N1 [Example 122]
0.25	Cn1c([C@@H]2C[C@@H](O)CN2)nc2c(F)c3c(c(F)c21)CC(CN1CCC2(CC1)CN(c1cnc4c(n1)NC(=O)CO4)C(=O)O2)C3.O=C(O)C(F)(F)F (stereo partly drawn) [Example 55, 6-[8-[[4,8-difluoro-2-[(2S,4R)-4-hydroxypyrrolidin-2-yl]-1-methyl-6,7-dihydro-5H-cyclopenta[f]benzimidazol-6-yl]methyl]-2-oxo-1-oxa-3,8-diazaspiro[4.5]decan-3-yl]-4H-pyrazino[2,3-b][1,4]oxazin-3-one; 2,2,2-trifluoroacetic acid]
1 (≈ 1.64 µM)	O=C1COc2ncc(N3CC4(CCN(CC5Cc6c(c(F)c7[nH]c(CN8CCOCC8)nc7c6F)C5)CC4)OC3=O)nc2N1 [Example 8, 6-[8-[[4,8-difluoro-2-(morpholinomethyl)-3,5,6,7-tetrahydrocyclopenta[f]benzimidazol-6-yl]methyl]-2-oxo-1-oxa-3,8-diazaspiro[4.5]decan-3-yl]-4H-pyrazino[2,3-b][1,4]oxazin-3-one]
0.5 (≈ 0.883 µM)	O=C1COc2ncc(N3CC4(CCN(CC5Cc6c(c(F)c7c(nc8n7CCNC8)c6F)C5)CC4)OC3=O)nc2N1 (stereo not shown) [Example 23, 6-[8-[(10,16-difluoro-2,5,8-triazatetracyclo[7.7.0.02,7.011,15]hexadeca-1(9),7,10,15-tetraen-13-yl)methyl]-2-oxo-1-oxa-3,8-diazaspiro[4.5]decan-3-yl]-4H-pyrazino[2,3-b][1,4]oxazin-3-one]
0.125	CNCc1nc2c(F)c3c(cc2[nH]1)CC(CN1CCC2(CC1)CN(c1cnc4c(n1)NC(=O)CO4)C(=O)O2)C3.O=C(O)C(F)(F)F (stereo not shown) [Example 12, 6-[8-[[8-fluoro-2-(methylaminomethyl)-1,5,6,7-tetrahydrocyclopenta[f]benzimidazol-6-yl]methyl]-2-oxo-1-oxa-3,8-diazaspiro[4.5]decan-3-yl]-4H-pyrazino[2,3-b][1,4]oxazin-3-one; 2,2,2-trifluoroacetic acid]
2 (≈ 3.05 µM)	CN(C)CC(=O)N(C)CCn1nnc2c(F)c3c(c(F)c21)CC(CN1CCC2(CC1)CN(c1cnc4c(n1)NC(=O)CO4)C(=O)O2)C3 (single isomer, unassigned) [Example 152, N-[2-[4,8-difluoro-6-[[2-oxo-3-(3-oxo-4H-pyrazino[2,3-b][1,4]oxazin-6-yl)-1-oxa-3,8-diazaspiro[4.5]decan-8-yl]methyl]-6,7-dihydro-5H-cyclopenta[f]benzotriazol-1-yl]ethyl]-2-(dimethylamino)-N-methyl-acetamide]
0.125 (≈ 0.233 µM)	CNCc1nc2cc(F)c3c(c2[nH]1)CC(CN1CCC2(CC1)CN(c1cnc4c(n1)NC(=O)CO4)C(=O)O2)C3 (stereo not shown) [Example 92, 6-[8-[[5-fluoro-2-(methylaminomethyl)-1,6,7,8-tetrahydrocyclopenta[e]benzimidazol-7-yl]methyl]-2-oxo-1-oxa-3,8-diazaspiro[4.5]decan-3-yl]-4H-pyrazino[2,3-b][1,4]oxazin-3-one]
0.25	O=C(O)C(F)(F)F.O=C1COc2ncc(N3CC4(CCN(CC5Cc6c(c(F)c7[nH]c([C@H]8C[C@@H](O)CN8)nc7c6F)C5)CC4)OC3=O)nc2N1 [Example 50, 6-[8-[[4,8-difluoro-2-[(2R,4R)-4-hydroxypyrrolidin-2-yl]-3,5,6,7-tetrahydrocyclopenta[f]benzimidazol-6-yl]methyl]-2-oxo-1-oxa-3,8-diazaspiro[4.5]decan-3-yl]-4H-pyrazino[2,3-b][1,4]oxazin-3-one; 2,2,2-trifluoroacetic acid]
0.125	O=C(O)C(F)(F)F.O=C1COc2ncc(N3CC4(CCN(CC5Cc6c(c(F)c7[nH]c([C@@H]8CCCN8)nc7c6F)C5)CC4)OC3=O)nc2N1 [Example 11, 6-[8-[[4,8-difluoro-2-[(2S)-pyrrolidin-2-yl]-3,5,6,7-tetrahydrocyclopenta[f]benzimidazol-6-yl]methyl]-2-oxo-1-oxa-3,8-diazaspiro[4.5]decan-3-yl]-4H-pyrazino[2,3-b][1,4]oxazin-3-one; 2,2,2-trifluoroacetic acid]

Structure (SMILES)	MIC [µg/mL]
NCCn1nc2cc3c(c(F)c2n1)CC(CN1CCC2(CC1)CN(c1cnc4c(n1)NC(=O)CO4)C(=O)O2)C3 (stereo not shown) [Example 74, 6-[8-[[2-(2-aminoethyl)-8-fluoro-6,7-dihydro-5H-cyclopenta[f]benzotriazol-6-yl]methyl]-2-oxo-1-oxa-3,8-diazaspiro[4.5]decan-3-yl]-4H-pyrazino[2,3-b][1,4]oxazin-3-one]	0.06 (≈ 0.112 µM)

Same assay, conditions: strain Escherichia coli ATCC 25922, 18-24 hours at 35±2° C., lowest concentration for complete growth inhibition (no visible growth)

Escherichia coli growth inhibition MIC [µg/mL]	Structure (SMILES)
0.125	C[C@H](N)Cn1nc2cc(F)c3c(c2n1)CC(CN1CCC2(CC1)CN(c1cnc4c(n1)NC(=O)CO4)C(=O)O2)C3 (single isomer, unassigned) [Example 89]
1	O=C1COc2ncc(N3CC4(CCN(CC5Cc6cc7nn(C8CNC8)nc7c(F)c6C5)CC4)OC3=O)nc2N1 (single isomer, unassigned) [Example 110, 6-[2-oxo-8-[[2-(azetidin-3-yl)-8-fluoro-6,7-dihydro-5H-cyclopenta[f]benzotriazol-6-yl]methyl]-1-oxa-3,8-diazaspiro[4.5]decan-3-yl]-4H-pyrazino[2,3-b][1,4]oxazin-3-one]
4	CC(=O)N(C)CCn1nnc2c(F)c3c(c(F)c21)CC(CN1CCC2(CC1)CN(c1cnc4c(n1)NC(=O)CO4)C(=O)O2)C3 (single isomer, unassigned) [Example 157, N-[2-[4,8-difluoro-6-[[2-oxo-3-(3-oxo-4H-pyrazino[2,3-b][1,4]oxazin-6-yl)-1-oxa-3,8-diazaspiro[4.5]decan-8-yl]methyl]-6,7-dihydro-5H-cyclopenta[f]benzotriazol-1-yl]ethyl]-N-methyl-acetamide]

Structure (SMILES)	Escherichia coli growth inhibition MIC [µg/mL]
C[C@H](N)Cn1cnc2c(F)c3c(c(F)c21)CC(CN1CCC2(CC1)CN(c1cnc4c(n1)NC(=O)CO4)C(=O)O2)C3 (stereo partly drawn) [Example 129, 6-[8-[[1-[(2S)-2-aminopropyl]-4,8-difluoro-6,7-dihydro-5H-cyclopenta[f]benzimidazol-6-yl]methyl]-2-oxo-1-oxa-3,8-diazaspiro[4.5]decan-3-yl]-4H-pyrazino[2,3-b][1,4]oxazin-3-one; formic acid]	0.25

Same assay, conditions: strain Escherichia coli ATCC 25922, 18-24 hours at 35±2° C., lowest concentration for complete growth inhibition (no visible growth), dihydrochloride

Structure (SMILES)	Escherichia coli growth inhibition MIC [µg/mL]
NCCn1nc2cc(F)c3c(c2n1)CC(CN1CCC2(CC1)CN(c1ccc4c(n1)NC(=O)CO4)C(=O)O2)C3 (single isomer, unassigned) [Example 170, 6-[2-Oxo-8-[[2-(2-aminoethyl)-5-fluoro-7,8-dihydro-6H-cyclopenta[e]benzotriazol-7-yl]methyl]-1-oxa-3,8-diazaspiro[4.5]decan-3-yl]-4H-pyrido[3,2-b][1,4]oxazin-3-one dihydrochloride]	0.25
